Assay: Loss of asthma control (LOAC) events, 12-week ICS/LABA withdrawal study
Format: in vivo, human
Details: 400 mg TID
Excerpt: The general construct of this 12-week Loss of Asthma Control (LOAC) study consisted of a 4-week standardized ICS/LABA background therapy stabilization phase, a 4or 5-week background therapy withdrawal phase and a 3- or 4-week no background therapy phase, followed by a 4-week post IMP treatment safety follow-up period at the beginning of which, pre-screening asthma controller medications are restarted. Participants had access to short-acting β-agonist (SABA) reliever medication at all times during the protocol.
The primary endpoint was the proportion of patients with LOAC. The key secondary endpoint for the study was change in pre-bronchodilator FEV1 from baseline at EOT.
The primary endpoint was proportion of participants with LOAC during the 12-week treatment period.
Note that if the number of participants in some regions was too low, these regions may have been pooled with other regions. This strategy also applied to all the rest of the analyses where region was one of the covariates.
To assess the consistency in treatment effects across different subgroup levels, subgroup analyses were to be performed for the primary efficacy endpoint with respect to age group, gender, region, and other factors.
Secondary endpoints included pre-bronchodilator FEV1 change from baseline at EOT, ACQ-5 score change from baseline, and AQLQ score change from baseline. Other secondary and exploratory endpoints are described in Table 2.

[1] = all others than low EOS and low FeNO
[2] = baseline IgA <Median (2190) mg/L
[3] = baseline IgA ≥Median (2190) mg/L
[4] = baseline IgE <Median (121.85) IU/mL
[5] = baseline IgE ≥Median (121.85) IU/mL
[6] = baseline pre-BD FEV1 <Median (2.1955) L
[7] = baseline pre-BD FEV1 ≥Median (2.1955) L
[8] = blood eosinophil level 1 <0.15 (10^9/L)
[9] = blood eosinophil level 1 ≥0.15-<0.3 (10^9/L)
[10] = blood eosinophil level 1 ≥0.3 (10^9/L)
[11] = blood eosinophil level 2 <0.3 (10^9/L)
[12] = blood eosinophil level 2 ≥0.3 (10^9/L)
[13] = low EOS (<0.15) and low FeNO (<25)
[14] = percent predicted FEV1 group 1 <Median (77)
[15] = percent predicted FEV1 group 1 ≥Median (77)
[16] = percent predicted FEV1 group 2 <80
[17] = percent predicted FEV1 group 2 ≥80

CC(C)(C=C(C#N)C(=O)N1CCC[C@@H](n2nc(-c3ccc(Oc4ccccc4)cc3F)c3c(N)ncnc32)C1)N1CCN(C2COC2)CC1 (mixture of isomers) [rilzabrutinib, (R)-2-[3-[4-amino-3-(2-fluoro-4-phenoxy-phenyl)pyrazolo[3,4-d]pyrimidin-1-yl]piperidine-1-carbonyl]-4-methyl-4-[4-(oxetan-3-yl)piperazin-1-yl]pent-2-enenitrile]
OR vs. placebo [1]: 0.752
RD vs. Placebo [1]: −0.049
LOAC, number (atopic medical conditions: No): 8
OR vs. placebo (atopic medical conditions: No): 0.493
RD vs. Placebo (atopic medical conditions: No): −0.130
LOAC, number (atopic medical conditions: Yes): 4
OR vs. placebo (atopic medical conditions: Yes): 0.821
RD vs. Placebo (atopic medical conditions: Yes): −0.031
LOAC, number (background ICS dose High): 6
OR vs. placebo (background ICS dose High): 0.911
RD vs. Placebo (background ICS dose High): −0.011
LOAC, number (background ICS dose Medium): 6
OR vs. placebo (background ICS dose Medium): 0.421
RD vs. Placebo (background ICS dose Medium): −0.173
LOAC, number (baseline ACQ-5 >2): 6
OR vs. placebo (baseline ACQ-5 >2): 0.346
RD vs. Placebo (baseline ACQ-5 >2): −0.181
LOAC, number (baseline ACQ-5 ≤2): 6
OR vs. placebo (baseline ACQ-5 ≤2): 1.162
RD vs. Placebo (baseline ACQ-5 ≤2): 0.025
LOAC, number (baseline FeNO level 1 <25 ppb): 9
OR vs. placebo (baseline FeNO level 1 <25 ppb): 0.567
RD vs. Placebo (baseline FeNO level 1 <25 ppb): −0.065
LOAC, number (baseline FeNO level 1 ≥25 ppb): 3
OR vs. placebo (baseline FeNO level 1 ≥25 ppb): 0.798
RD vs. Placebo (baseline FeNO level 1 ≥25 ppb): −0.053
LOAC, number (baseline FeNO level 2 <35 ppb): 9
OR vs. placebo (baseline FeNO level 2 <35 ppb): 0.655
RD vs. Placebo (baseline FeNO level 2 <35 ppb): −0.029
LOAC, number (baseline FeNO level 2 ≥35 ppb): 3
OR vs. placebo (baseline FeNO level 2 ≥35 ppb): 0.628
RD vs. Placebo (baseline FeNO level 2 ≥35 ppb): −0.094
LOAC, number [2]: 6
OR vs. placebo [2]: 0.774
RD vs. Placebo [2]: −0.011
LOAC, number [3]: 6
OR vs. placebo [3]: 0.514
RD vs. Placebo [3]: −0.120
LOAC, number (baseline IgE <100 IU/mL): 4
OR vs. placebo (baseline IgE <100 IU/mL): 0.602
RD vs. Placebo (baseline IgE <100 IU/mL): −0.085
LOAC, number [4]: 6
OR vs. placebo [4]: 0.681
RD vs. Placebo [4]: −0.070
LOAC, number (baseline IgE ≥100 IU/mL): 8
OR vs. placebo (baseline IgE ≥100 IU/mL): 0.522
RD vs. Placebo (baseline IgE ≥100 IU/mL): −0.122
LOAC, number [5]: 6
OR vs. placebo [5]: 0.510
RD vs. Placebo [5]: −0.122
LOAC, number [6]: 7
OR vs. placebo [6]: 0.827
RD vs. Placebo [6]: −0.036
OR vs. placebo [7]: 0.362
RD vs. Placebo [7]: −0.176
LOAC, number [8]: 6
OR vs. placebo [8]: 0.716
RD vs. Placebo [8]: −0.062
LOAC, number [9]: 4
OR vs. placebo [9]: 1.619
RD vs. Placebo [9]: 0.072
LOAC, number [10]: 2
OR vs. placebo [10]: 0.139
RD vs. Placebo [10]: −0.363
LOAC, number [11]: 10
OR vs. placebo [11]: 1.019
RD vs. Placebo [11]: 0.047
LOAC, number [12]: 2
OR vs. placebo [12]: 0.146
RD vs. Placebo [12]: −0.350
LOAC, number [13]: 4
OR vs. placebo [13]: 0.441
RD vs. Placebo [13]: −0.157
LOAC, number [14]: 4
OR vs. placebo [14]: 0.452
RD vs. Placebo [14]: −0.129
LOAC, number [15]: 8
OR vs. placebo [15]: 0.599
RD vs. Placebo [15]: −0.078
LOAC, number [16]: 7
OR vs. placebo [16]: 0.736
RD vs. Placebo [16]: −0.047
OR vs. placebo [17]: 0.429
RD vs. Placebo [17]: −0.139
LOAC, number (smoking history Former): 2
OR vs. placebo (smoking history Former): 0.500
RD vs. Placebo (smoking history Former): −0.167
LOAC, number (smoking history Never): 10
OR vs. placebo (smoking history Never): 0.551
RD vs. Placebo (smoking history Never): −0.102
